Source: article PMC5362036, “Cohesive Properties of the Caulobacter crescentus Holdfast Adhesin Are Regulated by a Novel c-di-GMP Effector Protein” (mBio, 2017)

Experiments:
Assay type in all cases: binding
HfsK (CC3689) [1] = molecular target: T1, HfsK (CC3689) (Caulobacter vibrioides, UniProt Q9A277); assay: isothermal titration calorimetry
T1 construct: gene CC_3689; full length; His-tagged (ITC) or StrepII-tagged (mutants, UV cross-linking), expressed in E. coli; tags kept as far as told
Text: isothermal titration calorimetry on HfsK (CC3689) | His-CC3689 bound c-di-GMP in a concentration-dependent manner with an equilibrium disassociation constant (Kd)

HfsK (CC3689) [2] = molecular target: T2, HfsK (CC3689) (Caulobacter vibrioides, UniProt Q9A277, R240A); assay: UV cross-linking with […]c-di-GMP; details: StrepII-tagged, 1 uM protein; labelled compound
T2 construct: gene CC_3689; full length; His-tagged (ITC) or StrepII-tagged (mutants, UV cross-linking), expressed in E. coli; tags kept as far as told
T2 sequence (Q9A277 entry or part of it R240A): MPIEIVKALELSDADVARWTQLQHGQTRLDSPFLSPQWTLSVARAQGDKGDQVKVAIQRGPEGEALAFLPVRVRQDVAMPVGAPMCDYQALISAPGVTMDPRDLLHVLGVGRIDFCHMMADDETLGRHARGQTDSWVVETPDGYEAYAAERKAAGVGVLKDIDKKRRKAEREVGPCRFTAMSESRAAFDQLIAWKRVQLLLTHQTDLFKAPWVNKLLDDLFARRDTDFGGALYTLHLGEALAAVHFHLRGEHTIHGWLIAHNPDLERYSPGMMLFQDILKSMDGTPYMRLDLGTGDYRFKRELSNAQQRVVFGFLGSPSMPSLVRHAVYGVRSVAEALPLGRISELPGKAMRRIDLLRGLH

HfsK (CC3689) [3] = molecular target: T3, HfsK (CC3689) (Caulobacter vibrioides, UniProt Q9A277, R151A); assay: UV cross-linking with […]c-di-GMP; details: StrepII-tagged, 1 uM protein; labelled compound
T3 construct: gene CC_3689; full length; His-tagged (ITC) or StrepII-tagged (mutants, UV cross-linking), expressed in E. coli; tags kept as far as told
T3 sequence (Q9A277 entry or part of it R151A): as the sequence (Q9A277 entry or part of it R240A) above, with R151A, A240R counted along it

HfsK (CC3689) [4] = molecular target: T4, HfsK (CC3689) (Caulobacter vibrioides, UniProt Q9A277, R112A); assay: UV cross-linking with […]c-di-GMP; details: StrepII-tagged, 1 uM protein; labelled compound
T4 construct: gene CC_3689; full length; His-tagged (ITC) or StrepII-tagged (mutants, UV cross-linking), expressed in E. coli; tags kept as far as told
T4 sequence (Q9A277 entry or part of it R112A): as the sequence (Q9A277 entry or part of it R240A) above, with R112A, A240R counted along it

HfsK (CC3689) [5] = molecular target: T5, HfsK (CC3689) (Caulobacter vibrioides, UniProt Q9A277, R102A); assay: UV cross-linking with […]c-di-GMP; details: StrepII-tagged, 1 uM protein; labelled compound
T5 construct: gene CC_3689; full length; His-tagged (ITC) or StrepII-tagged (mutants, UV cross-linking), expressed in E. coli; tags kept as far as told
T5 sequence (Q9A277 entry or part of it R102A): as the sequence (Q9A277 entry or part of it R240A) above, with R102A, A240R counted along it

HfsK (CC3689) [6] = molecular target: T6, HfsK (CC3689) (Caulobacter vibrioides, UniProt Q9A277, R267A); assay: UV cross-linking with […]c-di-GMP; details: StrepII-tagged, 1 uM protein; labelled compound
T6 construct: gene CC_3689; full length; His-tagged (ITC) or StrepII-tagged (mutants, UV cross-linking), expressed in E. coli; tags kept as far as told
T6 sequence (Q9A277 entry or part of it R267A): as the sequence (Q9A277 entry or part of it R240A) above, with A240R, R267A counted along it

T1 sequence (Q9A277 entry or part of it): as the sequence (Q9A277 entry or part of it R240A) above, with A240R counted along it

SMILES: Nc1nc2c(ncn2[C@@H]2O[C@@H]3COP(=O)(O)O[C@H]4[C@@H](O)[C@H](n5cnc6c(=O)[nH]c(N)nc65)O[C@@H]4COP(=O)(O)O[C@H]3[C@H]2O)c(=O)[nH]1 [c-di-GMP]
- Kd (HfsK (CC3689) [1]): 724 nM
- UV cross-linking with [33P]c-di-GMP (HfsK (CC3689) [2]): residues of HfsK (R102, R112, R151, R240, and R267) were replaced with alanine
- UV cross-linking with [33P]c-di-GMP (HfsK (CC3689) [3]): residues of HfsK (R102, R112, R151, R240, and R267) were replaced with alanine
- UV cross-linking with [33P]c-di-GMP (HfsK (CC3689) [4]): HfsKR112a as the only mutant variant with reduced binding affinity for c-di-GMP
- UV cross-linking with [33P]c-di-GMP (HfsK (CC3689) [5]): residues of HfsK (R102, R112, R151, R240, and R267) were replaced with alanine
- UV cross-linking with [33P]c-di-GMP (HfsK (CC3689) [6]): residues of HfsK (R102, R112, R151, R240, and R267) were replaced with alanine
